Measurements: patent publication US20230002355A1 (NANJING SANHOME PHARMACEUTICAL CO., LTD., priority 2019, published 2023)
Where two headings read alike, the source gives them in different places. Blank lines part the entries; values can stand above or below the molecule they belong to.

Experiments:
NCI-H358 cells = assay: Cell proliferation inhibition test (CCK-8); type: cell-based; conditions: NCI-H358 human non-small cell lung cancer cells, 168 h, read-out: NIH358 cell proliferation inhibition IC50
Experimental: Test compounds: The compounds prepared in examples and comparative example of the present disclosure was tested. Each compound was formulated with DMSO into 20 mM. The concentrations of the compounds acting on NCI-H358 cells were 100 μM, 25 μM, 6.25 μM, 1.56 μM, 0.391 μM, 0.098 μM, 0.024 μM, 0.006 μM, 0.0015 μM, and 0.00038 μM successively.
Human non-small cell lung cancer cells NCI-H358 were purchased from the American Type Culture Collection (ATCC).
Reagents: The CCK-8 proliferation inhibition detection kit was purchased from Jiangsu KeyGEN BioTECH Co., Ltd. The CKX41 inverted microscope was purchased from Olympus, Japan. The multi-mode microplate reader was purchased from Molecular Devices, USA. The cell culture incubator was purchased from Thermo, USA.
Cell recovery: A NCI-H358 cell cryogenic vial was taken out from a liquid nitrogen tank, placed in water bath at 37° C., and shaked gently to allow it to thaw. The thawed cryogenic vial was disinfected with alcohol cotton, and opened to aspirate the cell fluid into a centrifuge tube. To the centrifuge tube, 1 mL of serum-containing complete medium was added and well-mixed. The centrifuge tube was placed into a centrifuge, for centrifugation at 1000 rpm for 5 min. Then the supernatant was discarded, and complete medium was added to completely dissipate and resuspend the cells through repeated pipetting. The cells were seeded in petri dishes at appropriate concentrations and cultured in a CO2 incubator at 37° C., with 5% CO2, 95% humidified air.
Cell passage: After the cells grew to about 80-90% confluence, the original culture medium (1640 culture medium+10% FBS+1% penicillin-streptomycin+1 mM sodium pyruvate) was discarded, and 1 mL of PBS was added to wash away the residual medium and then discarded. 1 mL of trypsin digestion solution was added to digest for 1-2 min. […] The cell suspension was collected by gently pipetting, and centrifuged at 1000 rpm for 5 min. After discarding the supernatant, the cells was resuspended in complete medium, seeded in petri dishes at the required density, and then cultured in a CO2 incubator at 37° C., with 5% CO2, 95% humidified air. Depending on cell growth, the culture medium was changed or passaged every 2-3 days.
After NCI-H358 cell passage, the cells were resuspended in fresh culture medium (1640 culture medium+3% FBS+1% penicillin-streptomycin+1 mM sodium pyruvate), and counted. The cells were seeded into a 96-well culture plate at a density of 1.5×10^4 cells/mL, with each well added 100 μL thereto (ie, 1.5×10^3 cells/well). After 24 h, 100 μL of fresh culture medium containing different drug concentrations (2×) was added to the old culture medium. The final concentrations of the compounds were 100 μM, 25 μM, 6.25 μM, 1.56 μM, 0.391 μM, 0.098 μM, 0.024 μM, 0.006 μM, 0.0015 μM, and 0.00038 μM, with each concentration group set two replicate wells. The cells were […] in the incubator again for 168 h. The culture medium in wells was discarded as thoroughly as possible, and 100 μL of culture medium containing CCK-8 (CCK-8:culture medium=1:10) was added. After a certain time of culture in the incubator, the 96-well plate was taken out of the incubator, and allowed to equilibrate at room temperature for 5 min. The absorbance (OD value) at 450 nm was detected in a multi-mode plate reader, and the cell proliferation inhibition rate was calculated. The calculation formula was Inhibition (%)=100−(ODexperiment well−ODblank well)/(ODsolvent control well−ODblank well)×100. According to different drug concentrations and their corresponding inhibition rates, IC50 curves were plotted using GraghPad 5.0 software, to analyze the data and to obtain final IC50.

[1] = Pharmacokinetic experiment in mice; type: in vivo; conditions: mouse, plasma, male BALB/c mice; for bioavailability: I.G. 10 mg/kg vs IV 1 mg/kg, read-out: bioavailability F; for AUC(0-inf) / AUC(0-t) / Cmax / half-life: I.G., 10 mg/kg
Experimental: Compounds: The compounds of the present disclosure prepared in the above examples were tested. The drug vehicle was Captisol/50 mM sodium acetate with pH 4.6 (10%/90%, w/v %). Oral drugs were formulated into a 0.5 mg/mL clear solution. Intravenous drug were formulated into a 0.1 mg/mL clear solution.
Animals: Male BALB/c mice, SPF grade, were purchased from Shanghai SIPPR-Bk Lab Animal Co., Ltd, with a weight of 18-20 g, and adapted for 2-3 days before experiments.
Instrument: API4500-type Triple Quadrupole LC/MS System, from AB, United States, equipped with electrospray ion source (ESI) and dual pumps LC-30AD; SIL-30AC autosampler; CTO-30AC column oven; DGU-20A3R degasser; AnalystQSA01.01 chromatography workstation; Milli-Q ultrapure water device (Millipore Inc); QilinbeierVortex-5 shaker; HITACHI CF16RX II desktop high-speed freezing centrifuge.
(1) There were 3 mice per group. The compounds of the examples of the present disclosure were given by intragastric administration (I.G.) at 10 mg/kg, or the compounds of the examples of the present disclosure were given by intravenous (IV) administration at 1 mg/kg.
(2) At 5 min, 15 min, 30 min, 1 h, 2 h, 6 h, 10 h, and 24 h after the intragastric administration or intravenous administration, blood was collected from the orbital venous plexus in heparinized EP tubes (0.6 ML), and centrifuged at 8000 rpm/min for 5 min. The upper plasma was taken, frozen at −20° C. and analyzed by LC-MS/MS.
(3) Plasma drug concentration-time curves were plotted according to blood drug concentration data obtained from the above-mentioned step. Pharmacokinetic parameters were calculated by using WinNonlin software.

Structure (SMILES): Nc1nc(N2CCC3(CC2)Oc2ccccc2[C@H]3N)cnc1Sc1ccnc(N)c1Cl [Compound A]
- IC50 (NCI-H358 cells): 18.3 nM
- bioavailability ([1]; oral): 51.2%

Structure (SMILES): Nc1nccc(Sc2cnc(N3CCC4(CC3)Cc3ncccc3[C@H]4N)n3ccnc23)c1Cl [Example 46, (S)-1′-(8-((2-amino-3-chloropyridin-4-yl)thio)imidazo[1,2-c]pyrimidin-5-yl)-5,7-dihydrospiro[cyclopenta[b]pyridine-6,4′-piperidine]-5-amine]
- IC50 (NCI-H358 cells): 8.5 nM

Structure (SMILES): Nc1nccc(Sc2cnc(N3CCC4(CC3)Oc3ccccc3[C@H]4N)n3ccnc23)c1F [Example 47, (R)-1′-(8-(((2-amino-3-fluoropyridin-4-yl)thio)imidazo[1,2-c]pyrimidin-5-yl)-3H-spiro[benzofuran-2,4′-piperidin]]-3-amine]
- IC50 (NCI-H358 cells): 16.7 nM

Structure (SMILES): Cc1nc(N2CCC3(CC2)Oc2ccccc2[C@H]3N)n2ccnc2c1-c1cccc(Cl)c1Cl [Example 48, (R)-1′-(8-(2,3-dichlorophenyl)-7-methylimidazo[1,2-c]pyrimidin-5-yl)-3H-spiro[benzofuran-2,4′-piperidine]-3-amine]
- IC50 (NCI-H358 cells): 12 nM
- bioavailability ([1]; po): 81.2%
- AUC(0-inf) ([1]; po): 37000 ng·h/mL
- AUC(0-t) ([1]; po): 24200 ng·h/mL
- Cmax ([1]; po): 1890 ng/mL
- half-life ([1]; po): 15.6 h

Structure (SMILES): COc1cccc(-c2c(C)nc(N3CCC4(CC3)Oc3ccccc3[C@H]4N)n3ccnc23)c1Cl [Example 49, (R)-1′-(8-(2-chloro-3-methoxyphenyl)-7-methylimidazo[1,2-c]pyrimidin-5-yl)-3H-spiro[benzofuran-2,4′-piperidine]-3-amine]
- IC50 (NCI-H358 cells): 13.3 nM

Structure (SMILES): Cn1c(N2CCC3(CC2)Oc2ccccc2[C@H]3N)nc2n[nH]c(-c3ccnc(NC4CC4)c3Cl)c2c1=O [Example 51]
- IC50 (NCI-H358 cells): 6 nM

The next molecules have a lower IC50 (NCI-H358 cells) than those just listed; values first:

- IC50 (NCI-H358 cells): 5.6 nM
Structure (SMILES): Cn1c(N2CCC3(CC2)Cc2ccccc2[C@H]3N)nc(N)c(Sc2ccc(N)nc2Cl)c1=O [Example 4, (S)-6-amino-2-(1-amino-1,3-dihydrospiro[indene-2,4′-piperidine]-1′-yl)-3-methyl-5-((6-amino-2-chloropyridin-3-yl)thio)pyrimidin-4(3H)-one]

- IC50 (NCI-H358 cells): 4.9 nM
- bioavailability ([1]; po): 74.3%
- AUC(0-inf) ([1]; po): 7410 ng·h/mL
- AUC(0-t) ([1]; po): 6520 ng·h/mL
- Cmax ([1]; po): 1390 ng/mL
- half-life ([1]; po): 3 h
Structure (SMILES): Cn1c(N2CCC3(CC2)Oc2ccccc2[C@H]3N)nc(N)c(Sc2cccnc2C(F)(F)F)c1=O [Example 53, (R)-6-amino-2-(3-amino-3H-spiro[benzofuran-2,4′-piperidine]-1′-yl)-3-methyl-5-((2-(trifluoromethyl)pyridin-3-yl)thio)pyrimidin-4(3H)-one]

- IC50 (NCI-H358 cells): 3.9 nM
- bioavailability ([1]; po): 78.3%
- AUC(0-inf) ([1]; po): 21600 ng·h/mL
- AUC(0-t) ([1]; po): 19400 ng·h/mL
- Cmax ([1]; po): 1590 ng/mL
- half-life ([1]; po): 7.3 h
Structure (SMILES): Nc1nccc(Sc2cnc(N3CCC4(CC3)Oc3ccccc3[C@H]4N)n3ccnc23)c1Cl [Example 45]

- IC50 (NCI-H358 cells): 3.3 nM
Structure (SMILES): Cn1c(N2CCC3(CC2)Cc2ccccc2[C@H]3N)nc(N)c(Sc2ccnc(N)c2Cl)c1=O [Example 8]

- IC50 (NCI-H358 cells): 2.8 nM
Structure (SMILES): Cc1ncccc1Sc1c(N)nc(N2CCC3(CC2)Cc2ccccc2[C@H]3N)n(C)c1=O [Example 6, (S)-6-amino-2-(1-amino-1,3-dihydrospiro[indene-2,4′-piperidine]-1′-yl)-3-methyl-5-((2-methylpyridin-3-yl)thio)pyrimidin-4(3H)-one]

- IC50 (NCI-H358 cells): 1.6 nM
Structure (SMILES): Cn1c(N2CCC3(CC2)Cc2ccccc2[C@H]3N)nc(N)c(Sc2cccnc2C(F)(F)F)c1=O [Example 1, (S)-6-amino-2-(1-amino-1,3-dihydrospiro[indene-2,4′-piperidin]-1′-yl)-3-methyl-5-((2-(trifluoromethyl)pyridin-3-yl)thio)pyrimidin-4(3H)-one]

- IC50 (NCI-H358 cells): 1.5 nM
Structure (SMILES): Cn1c(N2CCC3(CC2)Cc2ccccc2[C@H]3N)nc(N)c(Sc2cccc(C#N)c2Cl)c1=O [Example 9, (S)-3-((4-amino-2-(1-amino-1,3-dihydrospiro[indene-2,4′-piperidine]-1′-yl)-1-methyl-6-oxo-1,6-dihydropyrimidin-5-yl)thio)-2-chlorobenzonitrile]
